Test results published in ChEMBL document CHEMBL4304789, “Design, Synthesis, and Biological Evaluation of 2,4-Imidazolinedione Derivatives as HDAC6 Isoform-Selective Inhibitors” (ACS Med Chem Lett, 2019).
The source made the active and inactive calls. The calls are words filed in the database; no cut-off is given here.

These compounds were tested against T1, Protein deacetylase HDAC6 (Homo sapiens, UniProt Q9UBN7) (assay: Inhibition of HDAC6 (unknown origin) using Ac-LeuGlyLys(Ac)-AMC as substrate preincubated for 5 mins followed by substrate addition and measured after 60 mins by fluorescence based assay). Conditions: not given.
T1 sequence (Q9UBN7 whole entry): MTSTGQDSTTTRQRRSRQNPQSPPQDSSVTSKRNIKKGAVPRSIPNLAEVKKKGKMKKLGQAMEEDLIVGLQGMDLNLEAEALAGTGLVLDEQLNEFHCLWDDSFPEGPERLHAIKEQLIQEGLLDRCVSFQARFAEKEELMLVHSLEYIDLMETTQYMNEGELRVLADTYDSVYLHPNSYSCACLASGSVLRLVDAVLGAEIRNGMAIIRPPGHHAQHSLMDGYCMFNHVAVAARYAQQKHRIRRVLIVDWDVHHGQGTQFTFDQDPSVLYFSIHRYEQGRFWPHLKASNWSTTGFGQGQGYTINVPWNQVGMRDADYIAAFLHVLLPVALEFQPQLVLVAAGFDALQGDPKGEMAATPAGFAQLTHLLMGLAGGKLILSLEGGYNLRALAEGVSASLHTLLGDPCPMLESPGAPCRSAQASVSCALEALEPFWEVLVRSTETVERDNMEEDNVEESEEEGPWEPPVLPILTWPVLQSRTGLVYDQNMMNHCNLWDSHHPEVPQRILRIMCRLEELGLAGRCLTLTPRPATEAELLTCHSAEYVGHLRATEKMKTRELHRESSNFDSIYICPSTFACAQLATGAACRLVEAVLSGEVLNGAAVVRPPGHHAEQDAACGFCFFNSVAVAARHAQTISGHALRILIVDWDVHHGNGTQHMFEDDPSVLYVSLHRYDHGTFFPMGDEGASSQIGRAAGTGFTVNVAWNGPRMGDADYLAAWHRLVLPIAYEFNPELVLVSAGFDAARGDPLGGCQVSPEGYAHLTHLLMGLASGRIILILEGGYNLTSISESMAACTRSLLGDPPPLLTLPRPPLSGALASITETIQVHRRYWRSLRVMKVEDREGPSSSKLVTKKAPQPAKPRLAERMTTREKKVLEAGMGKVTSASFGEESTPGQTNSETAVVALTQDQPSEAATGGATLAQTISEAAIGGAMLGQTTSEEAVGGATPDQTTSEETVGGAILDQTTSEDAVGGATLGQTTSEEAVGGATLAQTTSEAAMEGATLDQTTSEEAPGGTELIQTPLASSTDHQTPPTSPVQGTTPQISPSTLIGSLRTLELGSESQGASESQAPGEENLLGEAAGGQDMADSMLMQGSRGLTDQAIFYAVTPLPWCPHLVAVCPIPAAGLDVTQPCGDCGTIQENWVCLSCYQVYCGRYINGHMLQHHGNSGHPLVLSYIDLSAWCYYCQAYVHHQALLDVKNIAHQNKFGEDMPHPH

Going from `CN1C(=O)N(c2ccc(Cl)cc2)C(=O)C1CCC(=O)Nc1ccc(C(=O)NO)cc1` (centres undefined) to `CCCN1C(=O)N(c2ccc(Cl)cc2)C(=O)C1CCC(=O)Nc1ccc(C(=O)NO)cc1` (centres undefined), the IC50 rises from 7 nM to 12.6 nM (1.8-fold).

`O=C(CCC1C(=O)N(c2ccc(Cl)cc2)C(=O)N1Cc1ccc(Br)cc1)NCc1ccc(C(=O)NO)cc1` (centres undefined) and `Cc1ccc(CN2C(=O)N(c3ccc(Cl)cc3)C(=O)C2CCC(=O)NCc2ccc(C(=O)NO)cc2)cc1` (centres undefined) are within 1.5-fold of each other in IC50: 16.5 nM for the first, 18.9 nM for the second.

`O=C(CCC1C(=O)N(c2ccccc2)C(=O)N1Cc1ccc(Br)cc1)NCc1ccc(C(=O)NO)cc1` (centres undefined) and `O=C(CCC1C(=O)N(c2ccc(Cl)cc2)C(=O)N1Cc1ccccc1)NCc1ccc(C(=O)NO)cc1` (centres undefined) are within 1.5-fold of each other in IC50: 13.6 nM for the first, 12.7 nM for the second.

First: Cc1ccc(CN2C(=O)N(C3CCCCC3)C(=O)C2CCC(=O)Nc2ccc(C(=O)NO)cc2)cc1 (centres undefined)
Second: Cc1ccc(CN2C(=O)N(C3CCCCC3)C(=O)C2CCC(=O)NCc2ccc(C(=O)NO)cc2)cc1 (centres undefined)
The IC50 of the first is 1.7-fold lower: 10.3 nM for the first, 17 nM for the second.

Going from `CN1C(=O)N(c2ccc(Cl)cc2)C(=O)C1CCC(=O)NCc1ccc(C(=O)NO)cc1` (centres undefined) to `Cc1ccc(CN2C(=O)N(c3ccc(Cl)cc3)C(=O)C2CCC(=O)Nc2cccc(C(=O)NO)c2)cc1` (centres undefined), the IC50 rises from 11.8 nM to > 40 nM.

Compared with `CCCN1C(=O)N(C2CCCCC2)C(=O)C1CCC(=O)Nc1ccc(C(=O)NO)cc1` (centres undefined), `O=C(CCC1C(=O)N(Cc2ccccc2)C(=O)N1Cc1ccc(Br)cc1)Nc1ccc(C(=O)NO)cc1` (centres undefined) is lower in IC50: > 40 nM for the first, 9.8 nM for the second.

`O=C(CCC1C(=O)N(c2ccc(Cl)cc2)C(=O)N1Cc1ccccc1)Nc1cccc(C(=O)NO)c1` (centres undefined) was tested, and the IC50 was > 40 nM.

These compounds were tested against Histone deacetylase (Homo sapiens) (UniProt Q13547+O15379+Q9UBN7+Q92769+Q9UQL6+Q8WUI4+Q9BY41+Q96DB2+P56524+Q9UKV0+Q969S8). Conditions: at 0.08 to 1.6 µM.
Description: Inhibition of HDAC in human HL60 cells assessed as increase in acetylation of H3 at 0.08 to 1.6 uM incubated for 24 hrs by western blot analysis

For `O=C(CCCCCCNC(=O)c1cnc(N(c2ccccc2)c2ccccc2)nc1)NO`, the inhibition was “Active”.
